Data from patent US11236046B2, “Substituted heterocyclic sulfonamide compounds useful as TRPA1 modulators” (Genentech, Inc., priority 2013, dated 2022).

Molecular target: human TRPA1 (Homo sapiens (Human), UniProt O75762)
Experiment: FLIPR Tetra calcium influx assay, block of cinnamaldehyde-induced calcium influx in CHO cells expressing TRPA1 (human)
Assay type: cell-based
Conditions: 20 min compound incubation, 75 uM cinnamaldehyde (~EC80), Hill coefficient fixed to 1.5, read-out: hTRPA1 AUC IC50
Method in brief: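 CHO cells loaded with calcium dye, preincubated with compounds 20 min at room temperature in HBSS/20 mM HEPES pH 7.4 with 0.02% BSA. Channels activated by ~EC80 cinnamaldehyde (75 uM human, 45 uM rat); block of calcium influx read on FLIPR Tetra, IC50 fitted with fixed Hill coefficient.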

human TRPA1, sequence (O75762 whole entry): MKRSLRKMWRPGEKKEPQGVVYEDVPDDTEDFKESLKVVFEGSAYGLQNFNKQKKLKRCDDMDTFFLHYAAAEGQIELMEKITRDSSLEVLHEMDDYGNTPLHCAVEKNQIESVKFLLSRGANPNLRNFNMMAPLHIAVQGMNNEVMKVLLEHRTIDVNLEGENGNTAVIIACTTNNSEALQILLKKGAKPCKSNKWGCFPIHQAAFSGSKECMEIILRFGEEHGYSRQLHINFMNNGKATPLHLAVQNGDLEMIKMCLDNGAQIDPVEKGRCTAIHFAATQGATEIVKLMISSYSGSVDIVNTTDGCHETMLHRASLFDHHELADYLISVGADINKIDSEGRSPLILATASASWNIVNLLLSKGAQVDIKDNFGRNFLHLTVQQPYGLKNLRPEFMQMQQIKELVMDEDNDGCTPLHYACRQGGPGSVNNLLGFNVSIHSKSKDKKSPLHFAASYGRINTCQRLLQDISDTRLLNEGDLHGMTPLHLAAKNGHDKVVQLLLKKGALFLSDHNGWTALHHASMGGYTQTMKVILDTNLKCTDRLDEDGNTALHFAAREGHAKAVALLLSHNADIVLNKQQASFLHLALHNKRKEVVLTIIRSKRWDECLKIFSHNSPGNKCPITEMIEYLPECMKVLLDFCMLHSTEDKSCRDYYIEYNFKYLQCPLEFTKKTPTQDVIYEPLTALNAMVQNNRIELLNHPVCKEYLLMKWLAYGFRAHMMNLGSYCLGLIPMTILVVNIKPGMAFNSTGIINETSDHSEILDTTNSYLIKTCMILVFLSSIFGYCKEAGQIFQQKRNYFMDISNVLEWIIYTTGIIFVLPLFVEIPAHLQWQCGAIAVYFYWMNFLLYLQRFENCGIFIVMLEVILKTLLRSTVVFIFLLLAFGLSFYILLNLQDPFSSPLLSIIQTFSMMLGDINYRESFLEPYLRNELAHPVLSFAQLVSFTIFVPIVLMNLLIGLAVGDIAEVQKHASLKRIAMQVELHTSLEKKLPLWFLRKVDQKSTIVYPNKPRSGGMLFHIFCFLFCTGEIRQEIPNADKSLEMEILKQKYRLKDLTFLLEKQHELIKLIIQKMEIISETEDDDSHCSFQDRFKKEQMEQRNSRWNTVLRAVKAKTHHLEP

| Compound | IC50 |
| --- | --- |
| O=C(NCc1cc(-c2cnc(C(F)(F)F)nc2)ccn1)[C@@H]1[C@@H](F)CCN1S(=O)(=O)c1ccc(F)cc1 [Example 157, (2R,3S)-3-fluoro-1-(4-fluorophenyl)sulfonyl-N-[[4-[2-(trifluoromethyl)pyrimidin-5-yl]-2-pyridyl]methyl]pyrrolidine-2-carboxamide] | 103 nM |
| O=C(NCc1cc(C23CCC(C(F)F)(CC2)CC3)ncn1)[C@@H]1C[C@@H](F)CN1S(=O)(=O)c1ccc(F)cc1 [Example 133, (2S,4R)—N-[[6-[4-(difluoromethyl)-1-bicyclo[2.2.2]octanyl]pyrimidin-4-yl]methyl]-4-fluoro-1-(4-fluorophenyl)sulfonyl-pyrrolidine-2-carboxamide] | 59 nM |
| O=C(NCc1cn(-c2ccc(C(F)(F)F)nc2)nc1Cl)[C@@H]1C[C@@H](F)CN1S(=O)(=O)c1ccc(F)cc1 [Example 146, (2S,4R)—N-([3-chloro-1-[6-(trifluoromethyl)pyridin-3-yl]-1H-pyrazol-4-yl]methyl)-4-fluoro-1-[(4-fluorobenzene)sulfonyl]pyrrolidine-2-carboxamide] | 78 nM |
| O=C(NCc1cc(-c2ccc(C(F)(F)F)nn2)ccc1F)[C@@H]1C[C@@H](F)CN1S(=O)(=O)c1ccc(F)cc1 [Example 163, (2S,4R)-4-fluoro-N-(2-fluoro-5-(6-(trifluoromethyl)pyridazin-3-yl)benzyl)-1-((4-fluorophenyl)sulfonyl)pyrrolidine-2-carboxamide] | 43 nM |
| (2S,4R)-4-fluoro-1-(4-fluorophenyl)sulfonyl-N-[[3-fluoro-5-[2-(trifluoromethyl)thiazol-5-yl]phenyl]methyl]pyrrolidine-2-carboxamide [Example 174] | 12 nM |
| O=C(NCc1cc(-c2ccc(C(F)(F)F)nc2)ncn1)C1C2CC(CC2F)N1S(=O)(=O)c1ccc(F)cc1 (stereo not drawn) [Example 51, 5-fluoro-2-(4-fluorophenyl)sulfonyl-N-[[6-[6-(trifluoromethyl)-3-pyridyl]pyrimidin-4-yl]methyl]-2-azabicyclo[2.2.1]heptane-3-carboxamide] | 52 nM |
| O=C(NCc1ccc(F)c(-c2cnc(C(F)(F)F)cn2)c1)[C@@H]1[C@@H](F)CCN1S(=O)(=O)c1ccc(F)cc1 [Example 97, (2R,3S)-3-fluoro-N-([4-fluoro-3-[5-(trifluoromethyl)pyrazin-2-yl]phenyl]methyl)-1-[(4-fluorobenzene)sulfonyl]pyrrolidine-2-carboxamide] | 24 nM |
| COc1nn(-c2ccc(C(F)(F)F)cc2)cc1CNC(=O)[C@@H]1C[C@@H](F)CN1S(=O)(=O)c1cccc(F)c1 [Example 134, (2S,4R)-4-fluoro-1-[(3-fluorobenzene)sulfonyl]-N-([3-methoxy-1-[4-(trifluoromethyl)phenyl]-1H-pyrazol-4-yl]methyl)pyrrolidine-2-carboxamide] | 23 nM |
| O=C(NCc1cc(N2CCC(C(F)(F)F)CC2)c(F)cn1)[C@@H]1C[C@@H](F)CN1S(=O)(=O)c1ccc(F)cc1 [Example 144, (2S,4R)-4-fluoro-N-((5-fluoro-4-(4-(trifluoromethyl)piperidin-1-yl)pyridin-2-yl)methyl)-1-(4-fluorophenylsulfonyl)pyrrolidine-2-carboxamide] | 56 nM |
| Cc1cnc(CNC(=O)[C@@H]2C[C@@H](F)CN2S(=O)(=O)c2ccc(F)cc2)cc1-c1ccc(C(F)(F)F)nc1 [Example 96, (2S,4R)-4-fluoro-1-(4-fluorophenyl)sulfonyl-N-[[5-methyl-4-[6-(trifluoromethyl)-3-pyridyl]-2-pyridyl]methyl]pyrrolidine-2-carboxamide] | 162 nM |
| O=C(NCc1cc(-c2cnc(C(F)(F)F)cn2)c(F)cn1)[C@@H]1C[C@@H](F)CN1S(=O)(=O)c1ccc(F)cc1 [Example 102, (2S,4R)-4-fluoro-N-([5-fluoro-4-[5-(trifluoromethyl)pyrazin-2-yl]pyridin-2-yl]methyl)-1-[(4-fluorobenzene)sulfonyl]pyrrolidine-2-carboxamide] | 66 nM |
| O=C(NCc1ccnc(-c2ccc(C(F)(F)F)cc2O)c1)[C@@H]1C[C@@H](F)CN1S(=O)(=O)c1ccc(F)cc1 [Example 57, (2S,4R)-4-fluoro-1-(4-fluorophenyl)sulfonyl-N-[[2-[2-hydroxy-4-(trifluoromethyl)phenyl]-4-pyridyl]methyl]pyrrolidine-2-carboxamide] | 5 nM |
| N#Cc1cnc(CNC(=O)[C@@H]2C[C@@H](F)CN2S(=O)(=O)c2ccc(F)cc2)cc1-c1ccc(C(F)(F)F)nc1 [Example 71, (2S,4R)—N-[[5-cyano-4-[6-(trifluoromethyl)-3-pyridyl]-2-pyridyl]methyl]-4-fluoro-1-(4-fluorophenyl)sulfonyl-pyrrolidine-2-carboxamide] | 176 nM |
| O=C(NCc1cc(-c2ccc(C(F)(F)F)nc2)ncn1)[C@@H]1CC2(CC2)CN1S(=O)(=O)c1ccc(F)cc1 [Example 80] | 44 nM |

Further compounds by falling IC50, results first:

| IC50 | Compound |
| --- | --- |
| 771 nM | O=C(NCc1cc(F)cc(-n2ccc(C(F)(F)F)cc2=O)c1)[C@@H]1C[C@@H](F)CN1S(=O)(=O)c1ccc(F)cc1 [Example 85, (2S,4R)-4-fluoro-N-[[3-fluoro-5-[2-oxo-4-(trifluoromethyl)-1-pyridyl]phenyl]methyl]-1-(4-fluorophenyl)sulfonyl-pyrrolidine-2-carboxamide] |
| 86 nM | O=C(NCc1cc(F)cc(-c2nc(C(F)(F)F)cs2)c1)[C@@H]1C[C@@H](F)CN1S(=O)(=O)c1ccc(F)cc1 [Example 175, (2S,4R)-4-fluoro-1-(4-fluorophenyl)sulfonyl-N-[[3-fluoro-5-[4-(trifluoromethyl)thiazol-2-yl]phenyl]methyl]pyrrolidine-2-carboxamide] |
| 52 nM | O=C(NCc1cc(F)nc(-c2ccc(C(F)(F)F)nc2)c1)[C@@H]1C[C@@H](F)CN1S(=O)(=O)c1ccc(F)cc1 [Example 119, (2S,4R)-4-fluoro-N-([2-fluoro-6-[6-(trifluoromethyl)pyridin-3-yl]pyridin-4-yl]methyl)-1-[(4-fluorobenzene)sulfonyl]pyrrolidine-2-carboxamide] |
| 37 nM | COc1cc(-c2ccc(C(F)(F)F)nc2)cc(CNC(=O)[C@@H]2C[C@@H](F)CN2S(=O)(=O)c2ccc(F)cc2)n1 [Example 118, (2S,4R)-4-fluoro-1-[(4-fluorobenzene)sulfonyl]-N-([6-methoxy-4-[6-(trifluoromethyl)pyridin-3-yl]pyridin-2-yl]methyl)pyrrolidine-2-carboxamide] |
| 25 nM | C[C@@]1(C(=O)NCc2cc(-c3ccc(C(F)(F)F)nc3)c(F)cn2)C[C@@H](F)CN1S(=O)(=O)c1ccc(F)cc1 [Example 126, (2S,4R)-4-fluoro-1-(4-fluorophenyl)sulfonyl-N-[[5-fluoro-4-[6-(trifluoromethyl)-3-pyridyl]-2-pyridyl]methyl]-2-methyl-pyrrolidine-2-carboxamide] |
| 20 nM | O=C(NCc1cc(-c2ccc(C(F)(F)F)nc2)c(F)cn1)[C@@H]1C[C@@H](F)CN1S(=O)(=O)c1ccc(F)cc1 [Example 140, (2S,4R)-4-fluoro-N-((5′-fluoro-6-(trifluoromethyl)-3,4′-bipyridin-2′-yl)methyl)-1-(4-fluorophenylsulfonyl)pyrrolidine-2-carboxamide] |
| 14 nM | COc1nn(-c2cnc(C(F)(F)F)cn2)cc1CNC(=O)[C@@H]1C[C@@H](F)CN1S(=O)(=O)c1ccc(F)cc1 [Example 58, (2S,4R)-4-fluoro-1-(4-fluorophenyl)sulfonyl-N-[[3-methoxy-1-[5-(trifluoromethyl)pyrazin-2-yl]pyrazol-4-yl]methyl]pyrrolidine-2-carboxamide] |
